According to PMC12090182, “Repurposing of the RIPK1-Selective Benzo[1,4]oxazepin-4-one Scaffold for the Development of a Type III LIMK1/2 Inhibitor” (ACS Chemical Biology, 2025):
pEC50: −log10 of the molar value. “And” between values parts separate entries of the source, which are not always exact repeats. Equal values may be shown once. Read-outs that look alike come from different tables or passages of the source.

Key:
[1] = target: PIK3CA(E545A) (Homo sapiens, UniProt P42336, E545A); assay: biochemical; assay type: binding; conditions: compound concentration 100 nM; Entrez PIK3CA; read-out: Percent Control
[2] = target: T1, RIPK1 (Homo sapiens, UniProt Q13546); assay: NanoBRET cellular target engagement; assay type: cell-based; conditions: RIPK1, HEK293T cells
T1 construct: full-length LIMK1/2, RIPK1, BTK, and LRRK2 cloned in a frame in a NanoLuc-vector (Promega); host or cells: HEK293T
T1 sequence (Q13546 1-671): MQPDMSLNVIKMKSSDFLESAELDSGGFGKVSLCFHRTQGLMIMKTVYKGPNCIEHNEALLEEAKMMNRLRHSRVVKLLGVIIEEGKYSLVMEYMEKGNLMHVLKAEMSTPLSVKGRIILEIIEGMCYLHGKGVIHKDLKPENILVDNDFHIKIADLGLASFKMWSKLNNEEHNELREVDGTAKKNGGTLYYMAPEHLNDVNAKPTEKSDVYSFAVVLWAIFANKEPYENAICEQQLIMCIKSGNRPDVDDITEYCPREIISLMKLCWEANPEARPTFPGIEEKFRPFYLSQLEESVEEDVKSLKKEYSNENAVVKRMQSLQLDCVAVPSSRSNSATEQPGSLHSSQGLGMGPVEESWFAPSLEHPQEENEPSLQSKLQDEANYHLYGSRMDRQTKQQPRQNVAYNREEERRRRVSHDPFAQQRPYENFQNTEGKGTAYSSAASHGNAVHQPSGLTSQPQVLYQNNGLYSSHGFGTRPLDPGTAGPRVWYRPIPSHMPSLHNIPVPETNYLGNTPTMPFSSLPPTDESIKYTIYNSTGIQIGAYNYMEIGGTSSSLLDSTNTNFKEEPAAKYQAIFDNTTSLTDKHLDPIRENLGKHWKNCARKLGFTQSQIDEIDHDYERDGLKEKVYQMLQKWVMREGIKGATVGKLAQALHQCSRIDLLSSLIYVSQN
Method: The assay was performed as described previously.[31],[32] In brief, full-length LIMK1/2, RIPK1, BTK, and LRRK2 cloned in a frame in a NanoLuc-vector (Promega) were transfected into HEK293T cells (ATCC CRL-1573) using FuGENE HD (Promega, E2312), and proteins were allowed to express for 20 h. The serially diluted inhibitor and NanoBRET Kinase Tracer (Promega) used at the previously determined Tracer KD,app (Table S1) were pipetted into white 384-well plates (Greiner 781 207) using an ECHO 550 acoustic dispenser (Labcyte). The corresponding transfected cells were added and reseeded at a density of 2 × 10^5 cells/mL after trypsinization and resuspension in Opti-MEM without phenol red (Life Technologies). The system was allowed to equilibrate for 2 h at 37 °C and 5% CO2 prior to BRET measurements. To measure BRET, a NanoBRET Nano-Glo substrate and an extracellular NanoLuc inhibitor (Promega, N2160) were added as per the manufacturer's protocol, and filtered luminescence was measured on a PHERAstar plate reader (BMG Labtech) equipped with a luminescence filter pair (a 450 nm BP filter (donor) and a 610 nm LP filter (acceptor)). Competitive displacement data were then plotted using GraphPad Prism 10 software using a normalized three-parameter curve fit with the following equation: Y = 100/( [drawing 1] ).

[3] = target: PIK3CA(I800L) (Homo sapiens, UniProt P42336, I800L); assay: biochemical; assay type: binding; conditions: read-out: Percent Control
[4] = test system: cofilin phosphorylation (LIMK1/2 substrate); assay: Western blot of cofilin phosphorylation in LN-229 cells; assay type: cell-based, human; conditions: 6 h
Method: LN-229, a human glioblastoma cell line, was cultured until passage 17 in Dulbecco’s modified Eagle’s medium (DMEM) with GlutaMAX, 10% fetal bovine serum (FBS), and 1% penicillin/streptomycin. Cells were maintained in an incubator with 5% CO2 at 37 °C. For the treatment, 3 × 10^5 cells were plated and treated with the tested compounds at the indicated concentrations and DMSO as the control for 6 h. The cells were then lysed using RIPA buffer (50 mM Tris HCl pH 7.4, 150 mM NaCl, 1% Triton X-100, 1% NaDOC, 0.1% SDS, and 1 mM EDTA), freshly supplemented with protease and phosphatase inhibitor cocktails (Sigma-Aldrich, Darmstadt, Germany). After a 1 h incubation on ice, the lysates were centrifuged for 30 min at 250g, and the protein-containing supernatant was collected. The protein concentrations were determined using the protein assay dye reagent concentrate (Bradford, Bio-Rad, Hercules, CA, USA) and prediluted protein assay standard bovine serum albumin (BSA) set (Thermo Fisher Scientific, Darmstadt, Germany). Then, equal amounts of protein were mixed with a Roti-Load 1 dye (Carl Roth, Karlsruhe, Germany) and 4× Laemmli buffer (Bio-Rad, Hercules, CA, USA), denatured at 95 °C, and run on NuPAGE 4–12% bis-Tris gels (Thermo Fisher Scientific, Darmstadt, Germany). Proteins were blotted on methanol-activated PVDF transfer membranes (Thermo Fisher Scientific, Darmstadt, Germany) using the wet transfer method with transfer buffer (Thermo Fisher Scientific, Darmstadt, Germany) and 20% methanol. Subsequently, the membranes were blocked with 5% milk or 3% BSA in 0.1% TBS-T for 1 h at RT and incubated overnight at 4 °C with primary antibodies: GAPDH (catalog no. 2118, Cell Signaling Technology, MA, USA, 1:1000 dilution), LIMK1 (catalog no. 3842, Cell Signaling Technology, 1:1000 dilution), LIMK2 (catalog no. 3845, 1:500 dilution), p-cofilin (catalog no. 3313, Cell Signaling Technology, 1:1000 dilution), cofilin (catalog no. 5175, Cell Signaling Technology, 1:1000 dilution). […]

[5] = target: KIT(A829P) (Homo sapiens, UniProt P10721, A829P); assay: biochemical; assay type: binding; conditions: compound concentration 100 nM; Entrez KIT; read-out: Percent Control
[6] = target: BTK2 (Homo sapiens, UniProt Q06187); assay: scanMAX KINOMEscan (Eurofins); assay type: binding
Chain of BTK2 (Q06187 whole entry): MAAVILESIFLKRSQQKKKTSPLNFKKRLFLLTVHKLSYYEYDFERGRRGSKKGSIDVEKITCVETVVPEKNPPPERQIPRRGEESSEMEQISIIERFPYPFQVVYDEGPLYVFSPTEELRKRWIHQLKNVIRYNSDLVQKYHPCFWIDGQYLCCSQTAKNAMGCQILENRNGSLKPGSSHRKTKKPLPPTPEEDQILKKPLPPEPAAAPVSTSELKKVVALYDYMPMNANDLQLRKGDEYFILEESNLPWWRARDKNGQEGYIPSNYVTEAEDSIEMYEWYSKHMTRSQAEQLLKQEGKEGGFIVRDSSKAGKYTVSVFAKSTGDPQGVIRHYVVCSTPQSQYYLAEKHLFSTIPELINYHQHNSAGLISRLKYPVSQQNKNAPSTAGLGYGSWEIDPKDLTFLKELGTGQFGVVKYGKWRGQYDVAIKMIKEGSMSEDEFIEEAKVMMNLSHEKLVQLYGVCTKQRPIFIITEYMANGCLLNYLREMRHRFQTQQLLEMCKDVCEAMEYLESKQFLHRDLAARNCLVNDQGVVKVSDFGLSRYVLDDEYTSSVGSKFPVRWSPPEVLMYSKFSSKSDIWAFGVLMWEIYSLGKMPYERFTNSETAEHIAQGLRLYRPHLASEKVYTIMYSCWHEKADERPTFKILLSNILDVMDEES

Chain of KIT(A829P) (P10721 26-976 A829P): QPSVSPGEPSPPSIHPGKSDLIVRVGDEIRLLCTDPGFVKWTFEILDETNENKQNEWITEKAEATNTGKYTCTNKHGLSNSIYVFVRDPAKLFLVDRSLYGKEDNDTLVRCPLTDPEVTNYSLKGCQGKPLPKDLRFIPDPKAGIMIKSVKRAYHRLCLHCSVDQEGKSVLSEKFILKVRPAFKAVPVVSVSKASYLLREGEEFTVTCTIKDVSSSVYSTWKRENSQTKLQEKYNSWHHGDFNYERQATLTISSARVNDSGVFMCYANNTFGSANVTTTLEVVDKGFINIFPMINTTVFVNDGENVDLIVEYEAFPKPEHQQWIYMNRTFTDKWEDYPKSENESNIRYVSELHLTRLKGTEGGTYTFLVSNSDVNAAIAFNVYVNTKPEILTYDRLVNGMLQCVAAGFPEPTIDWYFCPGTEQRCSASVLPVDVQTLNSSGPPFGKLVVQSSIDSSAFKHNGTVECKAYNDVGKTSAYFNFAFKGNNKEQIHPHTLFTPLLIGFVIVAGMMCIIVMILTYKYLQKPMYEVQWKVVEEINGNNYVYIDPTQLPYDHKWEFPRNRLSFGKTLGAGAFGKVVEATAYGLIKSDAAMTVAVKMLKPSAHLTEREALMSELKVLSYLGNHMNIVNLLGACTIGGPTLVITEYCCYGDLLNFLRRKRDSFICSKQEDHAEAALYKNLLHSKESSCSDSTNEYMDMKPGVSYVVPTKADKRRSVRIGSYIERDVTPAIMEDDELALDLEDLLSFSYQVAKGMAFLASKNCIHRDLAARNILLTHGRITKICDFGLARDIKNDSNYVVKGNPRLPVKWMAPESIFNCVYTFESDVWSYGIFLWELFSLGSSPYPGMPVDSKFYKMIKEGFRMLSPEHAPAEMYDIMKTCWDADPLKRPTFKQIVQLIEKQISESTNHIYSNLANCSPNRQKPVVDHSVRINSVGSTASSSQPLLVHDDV
Chain of PIK3CA(E545A) (P42336 whole entry E545A): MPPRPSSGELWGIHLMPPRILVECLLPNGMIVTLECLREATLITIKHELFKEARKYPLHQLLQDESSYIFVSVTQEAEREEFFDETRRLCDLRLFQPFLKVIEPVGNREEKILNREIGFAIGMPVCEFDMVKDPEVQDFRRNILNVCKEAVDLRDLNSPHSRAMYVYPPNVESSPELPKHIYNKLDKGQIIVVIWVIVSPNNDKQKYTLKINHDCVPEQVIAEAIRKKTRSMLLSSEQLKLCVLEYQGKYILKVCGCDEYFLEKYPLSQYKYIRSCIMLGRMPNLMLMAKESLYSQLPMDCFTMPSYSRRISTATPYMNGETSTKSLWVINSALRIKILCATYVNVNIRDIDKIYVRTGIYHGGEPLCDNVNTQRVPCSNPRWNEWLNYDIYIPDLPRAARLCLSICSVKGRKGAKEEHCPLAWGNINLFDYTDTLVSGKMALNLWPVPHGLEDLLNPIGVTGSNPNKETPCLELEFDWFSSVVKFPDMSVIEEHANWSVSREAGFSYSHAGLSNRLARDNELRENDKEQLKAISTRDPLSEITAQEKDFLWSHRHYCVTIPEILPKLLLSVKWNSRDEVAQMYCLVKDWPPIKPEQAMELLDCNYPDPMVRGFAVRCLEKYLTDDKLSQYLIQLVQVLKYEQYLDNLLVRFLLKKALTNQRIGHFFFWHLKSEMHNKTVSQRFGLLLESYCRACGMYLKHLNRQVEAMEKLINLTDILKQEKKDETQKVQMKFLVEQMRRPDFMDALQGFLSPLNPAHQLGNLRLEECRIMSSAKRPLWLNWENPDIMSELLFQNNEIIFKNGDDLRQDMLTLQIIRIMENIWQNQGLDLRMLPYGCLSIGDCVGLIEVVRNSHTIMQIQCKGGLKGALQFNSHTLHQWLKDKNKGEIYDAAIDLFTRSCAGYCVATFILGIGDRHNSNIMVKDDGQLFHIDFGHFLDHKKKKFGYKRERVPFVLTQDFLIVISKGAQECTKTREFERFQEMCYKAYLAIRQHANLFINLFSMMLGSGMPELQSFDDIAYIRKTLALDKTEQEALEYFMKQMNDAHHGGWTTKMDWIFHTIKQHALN
Chain of PIK3CA(I800L) (P42336 whole entry I800L): as the sequence (P42336 whole entry E545A) above, with A545E, I800L counted along it

SMILES	remaining activity at 0.1 µM [1]	pEC50 ([2]; read-out: EC50 (NanoBRET))	pEC50 ([2]; read-out: EC50 (NanoBRET), Figure 4C)	remaining activity at 1 µM [3]	cofilin phosphorylation (Western blot) ([4]; 100 nM)	cofilin phosphorylation (Western blot) ([4]; 1 μM and higher concentrations)	remaining activity at 0.1 µM [5]	remaining binding at 1 µM ([6]; BTK2, 1 μM, read-out: POC (Top Hits @ 1 μM))	remaining binding at 0.1 µM ([6]; BTK (Entrez BTK), 100 nM, read-out: Percent Control)	remaining binding at 1 µM ([6]; BTK, 1000 nM, read-out: Percent Control)	cofilin phosphorylation (Western blot) ([4]; 5 μM)
CN1C(=O)[C@@H](N2CCc3c(nn(Cc4ccccc4)c3C(N)=O)C2=O)COc2cc(Cl)ccc21 [Compound 10, (S)-2-benzyl-6-(8-chloro-5-methyl-4-oxo-2,3,4,5-tetrahydrobenzo[b][1,4]oxazepin-3-yl)-7-oxo-4,5,6,7-tetrahydro-2H-pyrazolo[3,4-c]pyridine-3-carboxamide]	92%	8.20 and 8.11	8.11	89%	weaker levels of phosphorylation	almost completely abrogated	86%	55%	62%	55%	–
CN1C(=O)[C@@H](N2CCc3c(C(N)=O)nn(Cc4ccccc4)c3C2=O)COc2ccccc21 [Compound 11]	–	5.46	–	–	–	–	–	–	–	–	no effect
